Experimental data published in paper PMC9953703, “Bacterial Quorum-Sensing Peptides as Immune Modulators Present in Systemic Circulation” (Biomolecules, 2023).
Residues, ends and D or L forms follow the SMILES beside them.

How the values were obtained:
in vitro [1] = details: human plasma (500 µL) in Krebs-Henseleit buffer pH 7.4, 100 µg peptide, 37 °C shaking, 0, 30 and 120 min, UPLC-PDA, first-order kinetics; for half-life: human, plasma, pH 7.4, Plasma Half-Life
Method: In vitro chemical and metabolic stability of Q007, Q010, Q017 and Q212 was determined in cell medium and human plasma, respectively, using previously described procedures. In brief, 100 µg of peptide was incubated in Krebs–Henseleit buffer pH 7.4 with cell medium/plasma (500 µL) at 37 °C while shaking. At predetermined time intervals (i.e., 0, 6 and 24 h for cell medium; 0, 30 and 120 min for plasma), aliquots were immediately transferred into microtubes containing 1:1 volume of 1% (v/v) trifluoroacetic acid solution in water. The enzyme reaction was further stopped by heating the solution at 95 °C for 5 min. Next, the samples were centrifuged to precipitate the denatured proteins and the supernatant analysed using UPLC-PDA (Waters, Milford, MA, USA). Appropriate placebo solutions were similarly prepared. Assuming first-order kinetics, the rate constant k was obtained from ln(Pt/Pt0) = −kt, from which the half-life was determined as T1/2 = ln(2)/k.

human red blood cells = details: human RBC, 1 μM QSP, 1 h, 37 °C
Method: In vitro haemolysis of Q007, Q010, Q017 and Q212 was determined using previously described procedures. Briefly, freshly obtained human blood was centrifuged and the precipitate washed using freshly prepared 150 mM NaCl solution. After the final centrifugation step, the precipitate was resuspended into 100 mM sodium phosphate buffer pH 7.4. A 1 to 10 RBC solution was incubated for 1 h at 37 °C with QSP at a concentration of 1 μM. The absorbance of the supernatant was measured at 405 nm and corrected for the blank absorbance. The percent haemolysis was then calculated using the following equation: [(Asample − Ablank)/(Apositive control − Ablank)] × 100, with 1% (v/v) Triton X-100 being the positive control.

in vitro [2] = details: human, Caco-2
Method: Caco-2 permeability tests were performed as described by Wynendaele et al. [7], based on the protocol of Hubatsch et al. [14]. Briefly, Caco-2 cells were seeded on 12-well polycarbonate membrane filters (0.4 μm pore size, Corning, Teltow, Germany) and left for differentiation during 21–29 days. […] Samples were quantitatively analysed using UPLC-MS/MS. Four independent biological replicates were used (different days and well-plates), with each between 3 and 6 technical replicates (i.e., different wells on one plate/in one day).

Compound	Plasma Half-Life (in vitro [1])	half-life (in vitro [1])	haemolysis-inducing effect (human red blood cells)	Papp A→B at 30 min (in vitro [2])
C[C@@H](O)[C@H](NC(=O)[C@H](Cc1c[nH]c2ccccc12)NC(=O)[C@@H]1CCCN1C(=O)[C@H](CO)NC(=O)[C@@H](N)Cc1ccc(O)cc1)C(=O)N[C@@H](CC(N)=O)C(=O)N[C@@H](Cc1ccccc1)C(N)=O [Q007, RNAIII Inhibiting Peptide (RIP)] (H-YSPWTNF-NH2)	2.2 h	120 min	did not induce haemolysis	
CC(C)C[C@H](NC(=O)[C@H](CC(=O)O)NC(=O)[C@H](C)N)C(=O)N1CCC[C@H]1C(=O)N[C@@H](Cc1ccccc1)C(=O)N[C@@H](CCC(=O)O)C(=O)N[C@@H](Cc1ccccc1)C(=O)O [Q010, PapR7I] (H-ADLPFEF-OH)	9.2 h	540 min	lack of haemolysis-inducing effects	0.0129 ×10⁻⁶ cm/s
CC[C@H](C)[C@H](NC(=O)[C@H](CC(C)C)NC(=O)[C@H](C)N)C(=O)N[C@@H](CC(C)C)C(=O)N[C@H](C(=O)N[C@@H](CC(C)C)C(=O)N[C@H](C(=O)N[C@@H](CO)C(=O)O)C(C)C)[C@@H](C)O [Q017, iPD1] (H-ALILTLVS-OH)		150 min		
CC(C)[C@H](N)C(=O)N1CCC[C@H]1C(=O)N[C@@H](Cc1ccccc1)C(=O)N[C@@H](CCC(=O)O)C(=O)N[C@@H](Cc1ccccc1)C(=O)O [Q212, PapR5III] (H-VPFEF-OH)		12 min		
